Data on 28 molecules can be found in patent publication US10617680B2 (CELGENE QUANTICEL RESEARCH, INC., priority 2017, dated 2020).

Like-named read-outs stand apart in the source and are kept apart here. Some results are limits rather than exact numbers.

This test concerns the target CBP (Homo sapiens (Human), UniProt Q92793). Kind of test: In vitro CBP inhibition (AlphaScreen, biotinylated H4-tetraacetyl peptide). It is filed as binding. Summed up: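 His-tagged CBP expressed in E. coli (50 nM final) incubated with biotinylated H4K5/8/12/16(Ac) peptide (20 nM final) in 50 mM HEPES pH 7.3, 10 mM NaCl, 0.25 mM TCEP, 0.1% BSA, 0.005% Brij-35, 0.4% DMSO, 20 min at room temp.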

The mark [1] stands for this setting: AlphaScreen, Table 29, read-out: CBP IC50.

Sequence of CBP (Q92793 1081-1197): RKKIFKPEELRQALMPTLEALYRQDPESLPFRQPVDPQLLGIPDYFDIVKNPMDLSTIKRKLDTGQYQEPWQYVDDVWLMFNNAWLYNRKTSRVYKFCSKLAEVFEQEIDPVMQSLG

Usually IC50 stands for the concentration that gives 50% inhibition. In the case of `CN(C)C(=O)Cn1cc(-c2cn(C)c(=O)cc2-c2ccccc2)cn1` [Example 135, N,N-dimethyl-2-(4-(1-methyl-6-oxo-4-phenyl-1,6-dihydropyridin-3-yl)-1H-pyrazol-1-yl)acetamide], under setting [1], the half-inhibitory concentration (IC50) was less than 500 nM.

`Cn1cc(-c2cnn(-c3cccc(F)c3C#N)c2)c(-c2ccc(OC(F)F)nc2)cc1=O` [Example 353, 2-(4-(6-(difluoromethoxy)-1′-methyl-6′-oxo-1′,6′-dihydro-[3,4′-bipyridin]-3′-yl)-1H-pyrazol-1-yl)-6-fluorobenzonitrile]: under setting [1], the half-maximal inhibitory concentration (IC50) is less than 500 nM.

Regarding `CNc1ncc(-c2cc(=O)n(C)cc2-c2cnn(-c3cccc(Cl)c3C#N)c2)cn1` [Example 332, 2-chloro-6-(4-(1-methyl-4-(2-(methylamino)pyrimidin-5-yl)-6-oxo-1,6-dihydropyridin-3-yl)-1H-pyrazol-1-yl)benzonitrile], under setting [1], the IC50 is less than 500 nM.

Take `CC(C)Oc1ccc(-c2cc(=O)n(C)cc2-c2cnn(-c3ccccc3C#N)c2)cn1` [Example 235, 2-[4-(6-Isopropoxy-1′-methyl-6′-oxo-1′,6′-dihydro-[3,4′]bipyridinyl-3′-yl)-pyrazol-1-yl]-benzonitrile]: the half-maximal inhibitory concentration (IC50) under setting [1] was less than 500 nM.

In the case of `Cn1cc(-c2cnn(-c3ccccc3C#N)c2)c(-c2cc[nH]c(=O)c2)cc1=O` [Example 205, 2-[4-(1-Methyl-6,2′-dioxo-1,6,1′,2′-tetrahydro-[4,4′]bipyridinyl-3-yl)-pyrazol-1-yl]-benzonitrile], the 50% inhibitory concentration (IC50) under setting [1] is less than 500 nM.

`CCOc1cc(=O)n(C)cc1-c1cn(Cc2ccccc2)nc1NC(C)=O` [Example 187, N-[1-Benzyl-4-(4-ethoxy-1-methyl-6-oxo-1,6-dihydro-pyridin-3-yl)-1H-pyrazol-3-yl]-acetamide] displayed an IC50 of 500 to 5000 nM.

In the case of `Cc1cccc(C(C)n2cc(-c3ccc(=O)n(C)c3)cn2)c1` (stereo not shown) [Example 20, 1-methyl-5-(1-(1-(m-tolyl)ethyl)-1H-pyrazol-4-yl)pyridin-2(1H)-one], under setting [1], the half-inhibitory concentration (IC50) is less than 500 nM.

With `CCn1cc(-c2cnn(Cc3ccccc3)c2)ccc1=O` [Example 10, 5-(1-benzyl-1H-pyrazol-4-yl)-1-ethylpyridin-2(1H)-one], under setting [1], the half-inhibitory concentration (IC50) lay in the range of 500 to 5000 nM.

With `CNC(=O)c1ccn(-c2cc(=O)n(C)cc2-c2cnn(Cc3ccccc3)c2)c1` [Example 76], the half-inhibitory concentration (IC50) under setting [1] was less than 500 nM.

As for `CCOc1ccc(-c2cc(=O)n(C)cc2-c2cnn(-c3cccc(Cl)c3C#N)c2)cn1` [Example 365, 2-chloro-6-(4-(6-ethoxy-1′-methyl-6′-oxo-1′,6′-dihydro-[3,4′-bipyridin]-3′-yl)-1H-pyrazol-1-yl)benzonitrile], the IC50 under setting [1] was less than 500 nM.

In the case of `COc1ncc(-c2cc(=O)n(C)cc2-c2cnn(-c3ccccc3Cl)c2)cc1C` [Example 316, 5′-(1-(2-chlorophenyl)-1H-pyrazol-4-yl)-6-methoxy-1′,5-dimethyl-[3,4′-bipyridin]-2′(1′H)-one], the IC50 under setting [1] was less than 500 nM.

In the case of `Cn1cc(-c2cnn(C3CCCCC3O)c2)c(-c2ccccc2)cc1=O` (stereo not shown) [Example 321, 5-(1-(2-hydroxycyclohexyl)-1H-pyrazol-4-yl)-1-methyl-4-phenylpyridin-2(1H)-one], under setting [1], the IC50 is less than 500 nM.

Consider `Cn1cc(-c2cnn(Cc3ccccc3)c2)c(-c2ccn[nH]2)cc1=O` [Example 114, 5-(1-benzyl-1H-pyrazol-4-yl)-1-methyl-4-(1H-pyrazol-5-yl) pyridin-2(1H)-one], for which the IC50 under setting [1] is less than 500 nM.

Regarding `CC(C)Nc1ccc(-c2cc(=O)n(C)cc2-c2cnn(-c3cccc(Cl)c3C#N)c2)cn1` [Example 339, 2-chloro-6-[4-[4-[6-(isopropylamino)-3-pyridyl]-1-methyl-6-oxo-3-pyridyl]-pyrazol-1-yl]benzonitrile], under setting [1], the 50% inhibitory concentration (IC50) was less than 500 nM.

With `CCOC(=O)c1nn(Cc2ccccc2)cc1-c1cc(C)c(=O)n(C)c1` [Example 198, 1-Benzyl-4-(1,5-dimethyl-6-oxo-1,6-dihydro-pyridin-3-yl)-1H-pyrazole-3-carboxylic acid ethyl ester], under setting [1], the IC50 is less than 500 nM.

As for `Cn1cc(-c2cnn(-c3cccc(C4CC4)c3C#N)c2)c(-c2ccc(OCC3CC3)nc2)cc1=O` [Example 391, 2-cyclopropyl-6-(4-(6-(cyclopropylmethoxy)-1′-methyl-6′-oxo-1′,6′-dihydro-[3,4′-bipyridin]-3′-yl)-1H-pyrazol-1-yl)benzonitrile], the IC50 under setting [1] is less than 500 nM.

`COc1ccc(C#N)c(-n2cc(-c3cn(C)c(=O)cc3-c3ccccc3)cn2)c1` [Example 261, 4-Methoxy-2-[4-(1-methyl-6-oxo-4-phenyl-1,6-dihydro-pyridin-3-yl)-pyrazol-1-yl]-benzonitrile]: the concentration for half-maximal inhibition (IC50) under setting [1] was less than 500 nM.

Take `Cn1cc(-c2cnn(Cc3ccccc3)c2)c(-n2cccn2)cc1=O` [Example 66, 5-(1-benzyl-1H-pyrazol-4-yl)-1-methyl-4-(1H-pyrazol-1-yl) pyridin-2(1H)-one]: the IC50 under setting [1] was 500 to 5000 nM.

As to `Cn1cc(-c2cnn(Cc3ccccc3)c2)c(-c2ccsc2)cc1=O` [Example 117, 5-(1-benzyl-1H-pyrazol-4-yl)-1-methyl-4-(thiophen-3-yl) pyridin-2(1H)-one], the concentration for half-maximal inhibition (IC50) under setting [1] is less than 500 nM.

The molecule `Cn1cc(-c2cnn(Cc3ccccc3)c2)ccc1=O` [Example 1, 5-(1-benzyl-1H-pyrazol-4-yl)-1-methylpyridin-2(1H)-one] registered a half-maximal inhibitory concentration (IC50) of 500 to 5000 nM.

As for `CCOc1cc(=O)n(C)cc1-c1cn[nH]c1` [Example 69, 4-ethoxy-1-methyl-5-(1H-pyrazol-4-yl)pyridin-2(1H)-one], under setting [1], the half-inhibitory concentration (IC50) is less than 500 nM.

For the molecule `Cn1cc(-c2cnn(Cc3ccccc3)c2)c(-n2cccc2)cc1=O` [5-(1-benzyl-1H-pyrazol-4-yl)-1-methyl-4-(1H-pyrrol-1-yl)pyridin-2(1H)-one], where the note is “CBP versus BRD4”, the “IC50 for CBP compared with BRD4 (selectivity)” value was “lower IC50 for CBP than for BRD4”.

Take `CCCn1cc(-c2cn(C)c(=O)cc2-c2ccccc2)cn1` [Example 139, 1-methyl-4-phenyl-5-(1-propyl-1H-pyrazol-4-yl)pyridin-2(1H)-one]: the 50% inhibitory concentration (IC50) under setting [1] is less than 500 nM.

Regarding `COc1ccc(-c2cc(=O)n(C)cc2-c2cnn(-c3ccccc3C(=O)NC#N)c2)cc1` [Example 290, N-cyano-2-(4-(4-(4-methoxyphenyl)-1-methyl-6-oxo-1,6-dihydropyridin-3-yl)-1H-pyrazol-1-yl)benzamide], the IC50 under setting [1] is less than 500 nM.

As to `Cn1cc(-c2cnn(Cc3ccccc3)c2)c(N2CC[C@@H](NS(C)(=O)=O)C2)cc1=O` [Example 174, (R)-N-(1-(5-(1-benzyl-1H-pyrazol-4-yl)-1-methyl-2-oxo-1,2-dihydropyridin-4-yl)pyrrolidin-3-yl)methanesulfonamide], the IC50 under setting [1] lay within 500 to 5000 nM.

Consider `CCOc1ccc(-c2cc(=O)n(C)cc2-c2cnn(-c3cc(OC)ccc3C(=O)O)c2)cn1` [Example 271, 2-[4-(6-Ethoxy-1′-methyl-6′-oxo-1′,6′-dihydro-[3,4′]bipyridinyl-3′-yl)-pyrazol-1-yl]-4-methoxy-benzoic acid], for which, under setting [1], the concentration for half-maximal inhibition (IC50) is less than 500 nM.

`Cc1ccc(-c2cc(=O)n(C)cc2-c2cnn(-c3ccccc3C#N)c2)cc1` [Example 213, 2-[4-(1-Methyl-6-oxo-4-p-tolyl-1,6-dihydro-pyridin-3-yl)-pyrazol-1-yl]-benzonitrile]: the IC50 under setting [1] is less than 500 nM.

For `Cn1cc(-c2cc(=O)n(C)cc2-c2cnn(-c3ccccc3C#N)c2)cn1` [Example 204, 2-{4-[1-Methyl-4-(1-methyl-1H-pyrazol-4-yl)-6-oxo-1,6-dihydro-pyridin-3-yl]-pyrazol-1-yl}-benzonitrile], the IC50 under setting [1] is less than 500 nM.
